Test system: RR-EAE mice
Test: De novo expression of NeuN (BrdU+NeuN+ cells) in SGZ of RR-EAE mice
Type: in vivo
Experimental: FIGS. 12A-12B—The effect of SM1, SM7, SM9 and SM6 on de novo expression of mature neurons marker NeuN in the SGZ. FIG. 12A: immunohistochemical images showing the labeling of BrdU^+NeuN^+ cells in the SGZ. Images were obtained using Olympus 8.1 microscope (magnification×10). FIG. 12B: Quantification of BrdU^+NeuN^+ in the SGZ. Analysis was performed using image J software on 3 sections from each mouse (3 mice from each group, total n=9). Values are given as mean±SEM and the results of Student's t-test are represented as *p<0.05.
RR-EAE induced mice were intraperitoneally injected with 250 μg/mouse (Low-L) or 500 μg/mouse (High-H) of the small molecules SM1, SM7, SM9, SM6, or the corresponding vehicle. The SMs were injected each day starting on day 9 post immunization for 30 days. For immunohistochemical analysis, 3 mice of each group were intraperitoneally injected daily with bromo-2′-deoxyuridine (BrdU) starting from day 9 post immunization for 8 following days.
In this experiment, the amount of BrdU^+NeuN^+ cells in the SGZ of mice was evaluated. FIGS. 12A-12B show immunohistochemical labeling of BrdU^+NeuN^+ cells in mice with EAE that were treated with SMs or vehicle, using Olympus 8.1 microscope (magnification×10).

[1] = high dose (H) 500 μg/mouse i.p. daily

| Compound | BrdU+NeuN+ cells in the SGZ vs. vehicle [1] | BrdU+NeuN+ cells in the SGZ vs. vehicle (low dose (L) 250 μg/mouse i.p. daily) |
| --- | --- | --- |
| COC(=O)c1sccc1N/N=C(\C#N)S(=O)(=O)c1cccs1 [SM1, Methyl 3-[(2E)-2-[cyano(thiophen-2-ylsulfonyl)methylidene]hydrazinyl]thiophene-2-carboxylate] | significant increased induction | – |
| CS(=O)(=O)c1noc(-c2ccc(Cl)cc2)c1C#N [SM9, 5-(4-chlorophenyl)-3-methylsulfonyl-1,2-oxazole-4-carbonitrile] | trend for increased | significant increased induction |

Reference: US11779565B2, “Small organic molecules for use in the treatment of neuroinflammatory disorders” (THE MEDICAL RESEARCH, INFRASTRUCTURE AND HEALTH SERVICES …, priority 2017, dated 2023)
